For 22 compounds, MIC results are on record in ChEMBL document CHEMBL4049433, “Prediction of Antibiotic Interactions Using Descriptors Derived from Molecular Structure” (2017).

Values after ≈ are worked out from the molar mass of the structure shown.

This experiment relates to Escherichia coli. Kind of experiment: Antibacterial activity against Escherichia coli MG1655 measured every 15 mins for 12 hrs. The format is functional. The following applies: K-12 substr. MG1655.

`NCC[C@H](O)C(=O)N[C@@H]1C[C@H](N)[C@@H](O[C@H]2O[C@H](CN)[C@@H](O)[C@H](O)[C@H]2O)[C@H](O)[C@H]1O[C@H]1O[C@H](CO)[C@@H](O)[C@H](N)[C@H]1O` [AMIKACIN] came in with an MIC of 4 µg/mL (≈ 6.83 µM).
In the case of `CO[C@@]1(NC(=O)Cc2cccs2)C(=O)N2C(C(=O)O)=C(COC(N)=O)CS[C@@H]21` [CEFOXITIN] it was 4.5 µg/mL (≈ 10.5 µM); in that of `O=C(N[C@H](CO)[C@H](O)c1ccc([N+](=O)[O-])cc1)C(Cl)Cl` [CHLORAMPHENICOL], 5 µg/mL (≈ 15.5 µM).
In turn, `CC[C@H]1OC(=O)[C@H](C)[C@@H](O[C@H]2C[C@@](C)(OC)[C@@H](O)[C@H](C)O2)[C@H](C)[C@@H](O[C@@H]2O[C@H](C)C[C@H](N(C)C)[C@H]2O)[C@](C)(OC)C[C@@H](C)C(=O)[C@H](C)[C@@H](O)[C@]1(C)O` [CLARITHROMYCIN] came in with a minimum inhibitory concentration (MIC) of 22 µg/mL (≈ 29.4 µM).
Compound `CC[C@H]1OC(=O)[C@H](C)[C@@H](O[C@H]2C[C@@](C)(OC)[C@@H](O)[C@H](C)O2)[C@H](C)[C@@H](O[C@@H]2O[C@H](C)C[C@H](N(C)C)[C@H]2O)[C@](C)(O)C[C@@H](C)C(=O)[C@H](C)[C@@H](O)[C@]1(C)O` [ERYTHROMYCIN] came in with an MIC of 13 µg/mL (≈ 17.7 µM).
Consider `O=c1[nH]cc(F)c(=O)[nH]1` [FLUOROURACIL], for which 25 µg/mL (≈ 192 µM) was the least that counted as inhibitory (MIC).
In turn, `CC(=O)O[C@H]1C[C@@]2(C)[C@@H](C[C@@H](O)[C@H]3[C@@]4(C)CC[C@@H](O)[C@@H](C)[C@@H]4CC[C@@]32C)/C1=C(\CCC=C(C)C)C(=O)O` [FUSIDIC ACID] displayed an MIC of 800 µg/mL (≈ 1550 µM).
Compound `NC[C@H]1O[C@H](O[C@H]2[C@H](O)[C@@H](O[C@H]3O[C@H](CO)[C@@H](O)[C@H](N)[C@H]3O)[C@H](N)C[C@@H]2N)[C@H](O)[C@@H](O)[C@@H]1O` [KANAMYCIN] gave an MIC of 14 µg/mL (≈ 28.9 µM).
Compound `C/C(=C\C(=O)OCCCCCCCCC(=O)O)C[C@@H]1OC[C@H](C[C@@H]2O[C@H]2[C@@H](C)[C@H](C)O)[C@@H](O)[C@H]1O` [MUPIROCIN] gave an MIC of 66 µg/mL (≈ 132 µM).
For the compound `CCn1cc(C(=O)O)c(=O)c2ccc(C)nc21` [NALIDIXIC ACID], 5 µg/mL (≈ 21.5 µM) was the least that counted as inhibitory (MIC).
Turning to `O=C1CN(/N=C/c2ccc([N+](=O)[O-])o2)C(=O)N1` [NITROFURANTOIN], the minimum inhibitory concentration (MIC) stood at 12 µg/mL (≈ 50.4 µM).
Compound `Cc1onc(-c2ccccc2)c1C(=O)N[C@@H]1C(=O)N2[C@@H]1SC(C)(C)[C@@H]2C(=O)O` [OXACILLIN] displayed an MIC of 190 µg/mL (≈ 473 µM).
In turn, `CC1(C)S[C@@H]2[C@H](NC(=O)Cc3ccccc3)C(=O)N2[C@H]1C(=O)O` [PENICILLIN G] came in with an MIC of 20 µg/mL (≈ 59.8 µM).
On to `N=C(N)c1ccc(OCCCCCOc2ccc(C(=N)N)cc2)cc1` [PENTAMIDINE], for which the minimal inhibitory concentration (MIC) is 100 µg/mL (≈ 294 µM).
`CO[C@H]1/C=C/O[C@@]2(C)Oc3c(C)c(O)c4c(O)c(c(/C=N/N5CCN(C)CC5)c(O)c4c3C2=O)NC(=O)/C(C)=C\C=C\[C@H](C)[C@H](O)[C@@H](C)[C@@H](O)[C@@H](C)[C@H](OC(C)=O)[C@@H]1C` [RIFAMPIN] yielded a minimum inhibitory concentration (MIC) of 2.5 µg/mL (≈ 3.04 µM).
Regarding `CC[C@H]1OC(=O)[C@H](C)[C@@H](O[C@H]2C[C@@](C)(OC)[C@@H](O)[C@H](C)O2)[C@H](C)[C@@H](O[C@@H]2O[C@H](C)C[C@H](N(C)C)[C@H]2O)[C@](C)(O)C[C@@H](C)/C(=N\OCOCCOC)[C@H](C)[C@@H](O)[C@]1(C)O` [ROXITHROMYCIN], the lowest concentration to inhibit growth (MIC) was 62 µg/mL (≈ 74.1 µM).
The compound `CN[C@@H]1[C@H](O)[C@H](NC)[C@H]2O[C@@]3(O)C(=O)C[C@@H](C)O[C@H]3O[C@@H]2[C@H]1O` [SPECTINOMYCIN] had a minimum inhibitory concentration (MIC) of 5.6 µg/mL (≈ 16.8 µM).
Consider `CN(C)[C@@H]1C(O)=C(C(N)=O)C(=O)[C@@]2(O)C(O)=C3C(=O)c4c(O)cccc4[C@@](C)(O)[C@H]3C[C@@H]12` [TETRACYCLINE], for which the MIC amounted to 18 µg/mL (≈ 40.5 µM).
Regarding `NC[C@H]1O[C@H](O[C@H]2[C@H](O)[C@@H](O[C@H]3O[C@H](CO)[C@@H](O)[C@H](N)[C@H]3O)[C@H](N)C[C@@H]2N)[C@H](N)C[C@@H]1O` [TOBRAMYCIN], the minimal inhibitory concentration (MIC) was 2.5 µg/mL (≈ 5.35 µM).
For `COc1cc(Cc2cnc(N)nc2N)cc(OC)c1OC` [TRIMETHOPRIM], the MIC stood at 0.35 µg/mL (≈ 1.21 µM).
Take `CN[C@H](CC(C)C)C(=O)N[C@H]1C(=O)N[C@@H](CC(N)=O)C(=O)N[C@H]2C(=O)N[C@H]3C(=O)N[C@H](C(=O)N[C@H](C(=O)O)c4cc(O)cc(O)c4-c4cc3ccc4O)[C@H](O)c3ccc(c(Cl)c3)Oc3cc2cc(c3O[C@@H]2O[C@H](CO)[C@@H](O)[C@H](O)[C@H]2O[C@H]2C[C@](C)(N)[C@H](O)[C@H](C)O2)Oc2ccc(cc2Cl)[C@H]1O` [VANCOMYCIN]: the lowest concentration to inhibit growth (MIC) was 180 µg/mL (≈ 124 µM).
Next, GENTAMICIN: 3 µg/mL.
